Assay results as given in article PMC5622171 (Nature Communications, 2017).

Assays:
Experiment in all cases: KINOMEscan kinase profiling
Assay type in all cases: binding
[1] = target: T1, HPK1 (Homo sapiens, UniProt Q92918); settings: read-out: %Inhibition by 10 μM SPA70
T1 construct: purchased DiscoverX (Ambit Biosciences) KINOMEscan
In short: (§1)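 KINOMEscan profiling followed a published protocol. Kinases whose inhibition exceeded a set cut-off were then tested in a dilution series beginning at 30 µM.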

[2] = target: T2, PLK4 (Homo sapiens, UniProt O00444); settings: read-out: %Inhibition by 10 μM SPA70
T2 construct: purchased DiscoverX (Ambit Biosciences) KINOMEscan
In short: as §1

[3] = target: T3, ERK2 (Homo sapiens, UniProt P28482); settings: read-out: %Inhibition by 10 μM SPA70
T3 construct: purchased DiscoverX (Ambit Biosciences) KINOMEscan
In short: as §1

[4] = target: T4, FRK (Homo sapiens, UniProt P42685); settings: read-out: %Inhibition by 10 μM SPA70
T4 construct: purchased DiscoverX (Ambit Biosciences) KINOMEscan
In short: as §1

[5] = target: T5, CDC2L5 (Homo sapiens, UniProt Q14004)
T5 construct: purchased DiscoverX (Ambit Biosciences) KINOMEscan
In short: as §1

[6] = target: T6, MEK6 (Homo sapiens, UniProt P52564); settings: read-out: %Inhibition by 10 μM SPA70
T6 construct: purchased DiscoverX (Ambit Biosciences) KINOMEscan
In short: as §1

[7] = target: T7, PKAC-alpha (Homo sapiens, UniProt P17612)
T7 construct: purchased DiscoverX (Ambit Biosciences) KINOMEscan
In short: as §1

[8] = target: T8, SRC (Homo sapiens, UniProt P12931); settings: read-out: %Inhibition by 10 μM SPA70
T8 construct: purchased DiscoverX (Ambit Biosciences) KINOMEscan
In short: as §1

[9] = target: T9, PIP5K2B (Homo sapiens, UniProt P78356); settings: read-out: %Inhibition by 10 μM SPA70
T9 construct: purchased DiscoverX (Ambit Biosciences) KINOMEscan
In short: as §1

[10] = target: T10, DYRK1B (Homo sapiens, UniProt Q9Y463); settings: read-out: %Inhibition by 10 μM SPA70
T10 construct: purchased DiscoverX (Ambit Biosciences) KINOMEscan
In short: as §1

[11] = target: T11, PAK6 (Homo sapiens, UniProt Q9NQU5); settings: read-out: %Inhibition by 10 μM SPA70
T11 construct: purchased DiscoverX (Ambit Biosciences) KINOMEscan
In short: as §1

[12] = target: T12, MYLK4 (Homo sapiens, UniProt Q86YV6); settings: read-out: %Inhibition by 10 μM SPA70
T12 construct: purchased DiscoverX (Ambit Biosciences) KINOMEscan
In short: as §1

[13] = target: T13, CASK (Homo sapiens, UniProt O14936); settings: read-out: %Inhibition by 10 μM SPA70
T13 construct: purchased DiscoverX (Ambit Biosciences) KINOMEscan
In short: as §1

[14] = target: T14, MELK (Homo sapiens, UniProt Q14680); settings: read-out: %Inhibition by 10 μM SPA70
T14 construct: purchased DiscoverX (Ambit Biosciences) KINOMEscan
In short: as §1

[15] = target: T15, MEK4 (Homo sapiens, UniProt P45985); settings: read-out: %Inhibition by 10 μM SPA70
T15 construct: purchased DiscoverX (Ambit Biosciences) KINOMEscan
In short: as §1

[16] = target: T16, RIPK4 (Homo sapiens, UniProt P57078); settings: read-out: %Inhibition by 10 μM SPA70
T16 construct: purchased DiscoverX (Ambit Biosciences) KINOMEscan
In short: as §1

[17] = target: T17, DRAK1 (Homo sapiens, UniProt Q9UEE5); settings: read-out: %Inhibition by 10 μM SPA70
T17 construct: purchased DiscoverX (Ambit Biosciences) KINOMEscan
In short: as §1

[18] = target: T18, SGK3 (Homo sapiens, UniProt Q96BR1); settings: read-out: %Inhibition by 10 μM SPA70
T18 construct: purchased DiscoverX (Ambit Biosciences) KINOMEscan
In short: as §1

[19] = target: T19, MARK4 (Homo sapiens, UniProt Q96L34)
T19 construct: purchased DiscoverX (Ambit Biosciences) KINOMEscan
In short: as §1

[20] = target: T20, CSK (Homo sapiens, UniProt P41240)
T20 construct: purchased DiscoverX (Ambit Biosciences) KINOMEscan
In short: as §1

[21] = target: T21, TIE1 (Homo sapiens, UniProt P35590); settings: read-out: %Inhibition by 10 μM SPA70
T21 construct: purchased DiscoverX (Ambit Biosciences) KINOMEscan
In short: as §1

[22] = target: T22, TLK1 (Homo sapiens, UniProt Q9UKI8); settings: read-out: %Inhibition by 10 μM SPA70
T22 construct: purchased DiscoverX (Ambit Biosciences) KINOMEscan
In short: as §1

[23] = target: T23, RAF1 (Homo sapiens, UniProt P04049); settings: read-out: %Inhibition by 10 μM SPA70
T23 construct: purchased DiscoverX (Ambit Biosciences) KINOMEscan
In short: as §1

[24] = target: T24, FLT1 (Homo sapiens, UniProt P17948); settings: read-out: %Inhibition by 10 μM SPA70
T24 construct: purchased DiscoverX (Ambit Biosciences) KINOMEscan
In short: as §1

[25] = target: T25, CSF1R (Homo sapiens, UniProt P07333)
T25 construct: purchased Ambit Biosciences, now part of DiscoveryX
In short: as §1

[26] = target: T26, ASK1 (Homo sapiens, UniProt Q99683); settings: read-out: %Inhibition by 10 μM SPA70
T26 construct: purchased DiscoverX (Ambit Biosciences) KINOMEscan
In short: as §1

[27] = target: T27, EPHA6 (Homo sapiens, UniProt Q9UF33); settings: read-out: %Inhibition by 10 μM SPA70
T27 construct: purchased DiscoverX (Ambit Biosciences) KINOMEscan
In short: as §1

[28] = target: T28, SBK1 (Homo sapiens, UniProt Q52WX2); settings: read-out: %Inhibition by 10 μM SPA70
T28 construct: purchased DiscoverX (Ambit Biosciences) KINOMEscan
In short: as §1

[29] = target: T29, HUNK (Homo sapiens, UniProt P57058); settings: read-out: %Inhibition by 10 μM SPA70
T29 construct: purchased DiscoverX (Ambit Biosciences) KINOMEscan
In short: as §1

[30] = target: T30, TTK (Homo sapiens, UniProt P33981); settings: read-out: %Inhibition by 10 μM SPA70
T30 construct: purchased DiscoverX (Ambit Biosciences) KINOMEscan
In short: as §1

[31] = target: T31, HIPK4 (Homo sapiens, UniProt Q8NE63); settings: read-out: %Inhibition by 10 μM SPA70
T31 construct: purchased DiscoverX (Ambit Biosciences) KINOMEscan
In short: as §1

[32] = target: T32, OSR1 (Homo sapiens, UniProt O95747); settings: read-out: %Inhibition by 10 μM SPA70
T32 construct: purchased DiscoverX (Ambit Biosciences) KINOMEscan
In short: as §1

[33] = target: T33, RIOK1 (Homo sapiens, UniProt Q9BRS2); settings: read-out: %Inhibition by 10 μM SPA70
T33 construct: purchased DiscoverX (Ambit Biosciences) KINOMEscan
In short: as §1

[34] = target: T34, S6K1 (Homo sapiens, UniProt P23443); settings: read-out: %Inhibition by 10 μM SPA70
T34 construct: purchased DiscoverX (Ambit Biosciences) KINOMEscan
In short: as §1

[35] = target: T35, LTK (Homo sapiens, UniProt P29376); settings: read-out: %Inhibition by 10 μM SPA70
T35 construct: purchased DiscoverX (Ambit Biosciences) KINOMEscan
In short: as §1

[36] = target: T36, STK36 (Homo sapiens, UniProt Q9NRP7); settings: read-out: %Inhibition by 10 μM SPA70
T36 construct: purchased DiscoverX (Ambit Biosciences) KINOMEscan
In short: as §1

[37] = target: T37, PRKR (Homo sapiens, UniProt P19525)
T37 construct: purchased DiscoverX (Ambit Biosciences) KINOMEscan
In short: as §1

[38] = target: T38, LYN (Homo sapiens, UniProt P07948); settings: read-out: %Inhibition by 10 μM SPA70
T38 construct: purchased DiscoverX (Ambit Biosciences) KINOMEscan
In short: as §1

[39] = target: T39, MLCK (Homo sapiens, UniProt Q32MK0); settings: read-out: %Inhibition by 10 μM SPA70
T39 construct: purchased DiscoverX (Ambit Biosciences) KINOMEscan
In short: as §1

[40] = target: T40, TNNI3K (Homo sapiens, UniProt Q59H18); settings: read-out: %Inhibition by 10 μM SPA70
T40 construct: purchased DiscoverX (Ambit Biosciences) KINOMEscan
In short: as §1

[41] = target: T41, RSK1(Kin.Dom.1-N-terminal) (Homo sapiens, UniProt Q15418); settings: read-out: %Inhibition by 10 μM SPA70
T41 construct: RSK1(Kin.Dom.1-N-terminal); purchased DiscoverX (Ambit Biosciences) KINOMEscan
In short: as §1

[42] = read-out: %Inhibition by 10 μM SPA70

T25 sequence (P07333 20-972): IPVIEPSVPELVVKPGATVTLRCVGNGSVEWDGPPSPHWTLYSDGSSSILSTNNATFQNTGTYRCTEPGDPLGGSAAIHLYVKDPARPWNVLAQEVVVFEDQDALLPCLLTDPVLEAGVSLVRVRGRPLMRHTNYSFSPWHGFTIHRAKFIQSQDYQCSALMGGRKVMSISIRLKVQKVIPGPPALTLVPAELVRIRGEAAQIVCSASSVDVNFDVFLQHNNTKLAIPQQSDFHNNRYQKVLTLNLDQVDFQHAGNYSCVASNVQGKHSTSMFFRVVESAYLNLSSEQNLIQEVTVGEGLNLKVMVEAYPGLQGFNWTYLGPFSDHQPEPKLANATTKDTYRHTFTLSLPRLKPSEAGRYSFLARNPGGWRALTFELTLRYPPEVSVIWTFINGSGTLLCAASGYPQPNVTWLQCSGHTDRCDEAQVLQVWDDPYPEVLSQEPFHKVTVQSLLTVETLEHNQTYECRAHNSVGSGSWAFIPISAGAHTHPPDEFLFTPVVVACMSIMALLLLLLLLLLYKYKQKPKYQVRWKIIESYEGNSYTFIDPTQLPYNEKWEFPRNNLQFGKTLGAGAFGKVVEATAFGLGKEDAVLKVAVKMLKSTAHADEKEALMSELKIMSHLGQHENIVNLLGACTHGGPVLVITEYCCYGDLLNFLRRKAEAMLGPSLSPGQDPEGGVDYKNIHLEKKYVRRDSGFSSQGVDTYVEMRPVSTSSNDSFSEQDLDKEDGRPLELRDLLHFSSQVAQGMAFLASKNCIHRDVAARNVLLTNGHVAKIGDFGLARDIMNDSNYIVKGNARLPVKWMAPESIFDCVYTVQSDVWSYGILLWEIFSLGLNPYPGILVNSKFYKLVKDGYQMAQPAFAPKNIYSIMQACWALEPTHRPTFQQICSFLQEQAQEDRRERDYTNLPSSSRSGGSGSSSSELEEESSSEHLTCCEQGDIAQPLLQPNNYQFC
T34 sequence (P23443 whole entry): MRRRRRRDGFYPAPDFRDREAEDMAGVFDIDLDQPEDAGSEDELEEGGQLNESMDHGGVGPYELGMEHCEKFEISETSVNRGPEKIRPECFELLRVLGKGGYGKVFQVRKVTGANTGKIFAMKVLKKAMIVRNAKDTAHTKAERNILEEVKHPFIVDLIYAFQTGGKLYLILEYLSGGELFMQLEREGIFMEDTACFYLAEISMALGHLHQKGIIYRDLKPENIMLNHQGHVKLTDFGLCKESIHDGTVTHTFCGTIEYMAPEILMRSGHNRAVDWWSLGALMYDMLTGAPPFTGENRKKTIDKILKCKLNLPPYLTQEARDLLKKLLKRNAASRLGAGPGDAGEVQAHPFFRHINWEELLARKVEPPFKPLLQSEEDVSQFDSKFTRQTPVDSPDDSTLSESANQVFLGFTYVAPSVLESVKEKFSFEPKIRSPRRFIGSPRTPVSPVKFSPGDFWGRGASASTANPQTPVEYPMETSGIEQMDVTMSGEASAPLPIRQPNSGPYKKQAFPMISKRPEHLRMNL
T13 sequence (O14936 whole entry): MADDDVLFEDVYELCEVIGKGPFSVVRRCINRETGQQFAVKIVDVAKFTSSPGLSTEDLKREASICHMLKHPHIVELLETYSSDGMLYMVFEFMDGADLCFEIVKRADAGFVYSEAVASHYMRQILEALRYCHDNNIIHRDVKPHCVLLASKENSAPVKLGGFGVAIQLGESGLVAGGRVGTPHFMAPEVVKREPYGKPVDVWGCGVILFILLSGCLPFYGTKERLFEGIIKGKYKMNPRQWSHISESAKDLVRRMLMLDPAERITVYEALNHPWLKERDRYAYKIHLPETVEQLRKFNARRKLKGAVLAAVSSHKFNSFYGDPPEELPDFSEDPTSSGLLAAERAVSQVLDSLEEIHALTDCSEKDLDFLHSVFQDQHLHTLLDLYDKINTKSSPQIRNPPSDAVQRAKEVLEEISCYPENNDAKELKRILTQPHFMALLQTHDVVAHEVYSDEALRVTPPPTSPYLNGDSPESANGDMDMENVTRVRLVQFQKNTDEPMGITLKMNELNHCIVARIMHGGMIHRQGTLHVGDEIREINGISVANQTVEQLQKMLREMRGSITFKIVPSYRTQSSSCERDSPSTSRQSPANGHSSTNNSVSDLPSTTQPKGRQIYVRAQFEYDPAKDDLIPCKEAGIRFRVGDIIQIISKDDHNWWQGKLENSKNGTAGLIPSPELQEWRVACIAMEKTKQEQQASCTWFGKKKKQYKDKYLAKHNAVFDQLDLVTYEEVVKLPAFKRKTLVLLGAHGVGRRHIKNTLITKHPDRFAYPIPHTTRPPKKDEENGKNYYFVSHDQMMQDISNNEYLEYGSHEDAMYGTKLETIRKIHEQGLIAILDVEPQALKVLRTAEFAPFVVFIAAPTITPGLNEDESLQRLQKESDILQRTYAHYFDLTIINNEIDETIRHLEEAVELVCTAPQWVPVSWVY
T27 sequence (Q9UF33 23-1036): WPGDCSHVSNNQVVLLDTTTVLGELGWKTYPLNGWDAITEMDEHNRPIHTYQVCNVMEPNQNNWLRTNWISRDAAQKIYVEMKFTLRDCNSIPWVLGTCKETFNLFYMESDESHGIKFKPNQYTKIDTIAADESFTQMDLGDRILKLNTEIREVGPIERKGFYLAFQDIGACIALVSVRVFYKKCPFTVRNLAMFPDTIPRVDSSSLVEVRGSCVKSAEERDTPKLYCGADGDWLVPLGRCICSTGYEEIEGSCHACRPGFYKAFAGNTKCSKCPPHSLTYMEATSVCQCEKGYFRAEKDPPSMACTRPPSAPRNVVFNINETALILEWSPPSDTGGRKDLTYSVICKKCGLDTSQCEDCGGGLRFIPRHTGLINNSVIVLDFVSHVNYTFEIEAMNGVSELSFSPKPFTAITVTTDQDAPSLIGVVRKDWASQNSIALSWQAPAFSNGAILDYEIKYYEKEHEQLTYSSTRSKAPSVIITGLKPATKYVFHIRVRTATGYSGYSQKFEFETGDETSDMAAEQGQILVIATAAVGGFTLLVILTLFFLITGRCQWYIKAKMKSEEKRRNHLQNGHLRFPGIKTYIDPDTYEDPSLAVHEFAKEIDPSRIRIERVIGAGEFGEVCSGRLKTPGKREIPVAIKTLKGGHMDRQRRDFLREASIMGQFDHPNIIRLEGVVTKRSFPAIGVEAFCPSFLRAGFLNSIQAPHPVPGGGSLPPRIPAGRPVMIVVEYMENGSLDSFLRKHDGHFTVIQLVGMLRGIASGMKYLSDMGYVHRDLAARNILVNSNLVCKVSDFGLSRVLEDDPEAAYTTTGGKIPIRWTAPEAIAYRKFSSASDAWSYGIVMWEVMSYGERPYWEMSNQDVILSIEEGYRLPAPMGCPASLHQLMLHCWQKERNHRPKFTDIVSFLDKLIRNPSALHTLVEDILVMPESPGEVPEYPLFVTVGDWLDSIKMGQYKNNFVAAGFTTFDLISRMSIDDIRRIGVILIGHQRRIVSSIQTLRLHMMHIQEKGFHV
T3 sequence (P28482 whole entry): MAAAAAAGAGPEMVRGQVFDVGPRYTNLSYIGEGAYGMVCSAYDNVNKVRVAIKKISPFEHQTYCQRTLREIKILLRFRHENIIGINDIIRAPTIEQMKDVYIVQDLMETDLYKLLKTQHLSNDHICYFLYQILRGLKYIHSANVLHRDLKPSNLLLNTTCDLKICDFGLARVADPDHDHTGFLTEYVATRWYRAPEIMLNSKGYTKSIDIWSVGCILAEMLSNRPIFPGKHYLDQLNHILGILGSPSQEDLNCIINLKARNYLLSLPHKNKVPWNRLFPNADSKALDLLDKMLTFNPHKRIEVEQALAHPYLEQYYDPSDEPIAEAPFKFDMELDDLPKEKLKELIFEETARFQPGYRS
T29 sequence (P57058 whole entry): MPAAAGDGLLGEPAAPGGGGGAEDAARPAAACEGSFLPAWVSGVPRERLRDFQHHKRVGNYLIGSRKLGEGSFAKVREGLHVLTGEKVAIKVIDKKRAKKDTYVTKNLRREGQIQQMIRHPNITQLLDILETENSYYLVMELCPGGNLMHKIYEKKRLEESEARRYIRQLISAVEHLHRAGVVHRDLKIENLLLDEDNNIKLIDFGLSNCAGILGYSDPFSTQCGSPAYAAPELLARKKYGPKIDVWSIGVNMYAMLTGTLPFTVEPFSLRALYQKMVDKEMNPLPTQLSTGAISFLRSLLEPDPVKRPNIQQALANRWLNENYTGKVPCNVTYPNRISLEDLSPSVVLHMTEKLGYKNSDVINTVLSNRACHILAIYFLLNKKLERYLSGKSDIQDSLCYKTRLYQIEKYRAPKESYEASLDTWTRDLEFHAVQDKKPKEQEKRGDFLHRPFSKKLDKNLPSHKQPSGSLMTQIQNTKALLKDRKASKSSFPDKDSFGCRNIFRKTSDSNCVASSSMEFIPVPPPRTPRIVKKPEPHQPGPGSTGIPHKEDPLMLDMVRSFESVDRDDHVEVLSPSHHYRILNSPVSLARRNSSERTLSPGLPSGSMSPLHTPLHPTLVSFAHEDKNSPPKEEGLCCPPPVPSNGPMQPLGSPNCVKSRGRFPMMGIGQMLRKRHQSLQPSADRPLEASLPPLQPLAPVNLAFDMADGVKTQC
T28 sequence (Q52WX2 whole entry): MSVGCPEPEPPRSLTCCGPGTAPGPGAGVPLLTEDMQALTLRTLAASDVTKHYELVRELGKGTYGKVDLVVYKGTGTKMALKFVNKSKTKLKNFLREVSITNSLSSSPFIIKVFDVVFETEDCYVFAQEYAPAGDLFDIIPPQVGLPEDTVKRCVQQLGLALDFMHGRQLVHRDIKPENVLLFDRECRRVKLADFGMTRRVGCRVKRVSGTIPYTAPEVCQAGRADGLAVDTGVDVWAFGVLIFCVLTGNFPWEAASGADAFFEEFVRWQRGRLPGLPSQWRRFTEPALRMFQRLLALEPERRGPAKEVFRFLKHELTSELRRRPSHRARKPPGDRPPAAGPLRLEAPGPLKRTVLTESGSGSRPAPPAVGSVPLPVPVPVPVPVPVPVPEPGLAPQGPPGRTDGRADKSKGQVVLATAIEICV

With `COc1ccc(OC)c(-n2nnc(S(=O)(=O)c3ccc(C(C)(C)C)cc3)c2C)c1` [SPA70] as the molecule, how does the inhibition at 10 µM [1] read?
Its inhibition at 10 µM is 1%.

And the inhibition at 10 µM [2]?
The inhibition at 10 µM was 9%.

What about the inhibition at 10 µM [3] of the same molecule?
Its inhibition at 10 µM is 0%.

What about the inhibition at 10 µM [4] of the same molecule?
Its inhibition at 10 µM is 0%.

What about the “%Inhibition by 10 μM SPA70” value [5] of the same molecule?
Its value is 0%.

What about the inhibition at 10 µM [6] of the same molecule?
Its inhibition at 10 µM is 0%.

And the “%Inhibition by 10 μM SPA70” value [7]?
Its value is “not inhibited”.

And the inhibition at 10 µM [7, 42]?
Its inhibition at 10 µM is 0%.

And the inhibition at 10 µM [8]?
The inhibition at 10 µM was 0%.

And the inhibition at 10 µM [9]?
Its inhibition at 10 µM is 0%.

What about the inhibition at 10 µM [10] of the same molecule?
The inhibition at 10 µM was 0%.

And the inhibition at 10 µM [11]?
Its inhibition at 10 µM is 4%.

What about the inhibition at 10 µM [12] of the same molecule?
The inhibition at 10 µM was 0%.

What about the inhibition at 10 µM [13] of the same molecule?
The inhibition at 10 µM was 9%.

And the inhibition at 10 µM [14]?
Its inhibition at 10 µM is 3%.

And the inhibition at 10 µM [15]?
The inhibition at 10 µM was 0%.

What about the inhibition at 10 µM [16] of the same molecule?
Its inhibition at 10 µM is 0%.

What about the inhibition at 10 µM [17] of the same molecule?
The inhibition at 10 µM was 7%.

And the inhibition at 10 µM [18]?
The inhibition at 10 µM was 0%.

What about the “%Inhibition by 10 μM SPA70” value [19] of the same molecule?
The value was 0%.

What about the “%Inhibition by 10 μM SPA70” value [20] of the same molecule?
Its value is 9%.

What about the inhibition at 10 µM [21] of the same molecule?
The inhibition at 10 µM was 0%.

And the inhibition at 10 µM [22]?
Its inhibition at 10 µM is 23%.

What about the inhibition at 10 µM [23] of the same molecule?
Its inhibition at 10 µM is 19%.

And the inhibition at 10 µM [24]?
The inhibition at 10 µM was 0%.

And the Kd ([25]; 11-point 3-fold serial dilutions starting from 30 µM)?
Its Kd is 4 µM.

And the inhibition at 10 µM [25, 42]?
Its inhibition at 10 µM is 63%.

And the inhibition at 10 µM [26]?
Its inhibition at 10 µM is 4%.

What about the inhibition at 10 µM [27] of the same molecule?
Its inhibition at 10 µM is 0%.

And the inhibition at 10 µM [28]?
Its inhibition at 10 µM is 0%.

What about the inhibition at 10 µM [29] of the same molecule?
Its inhibition at 10 µM is 15%.

What about the inhibition at 10 µM [30] of the same molecule?
The inhibition at 10 µM was 0%.

What about the inhibition at 10 µM [31] of the same molecule?
The inhibition at 10 µM was 0%.

What about the inhibition at 10 µM [32] of the same molecule?
The inhibition at 10 µM was 14%.

What about the inhibition at 10 µM [33] of the same molecule?
The inhibition at 10 µM was 47%.

And the inhibition at 10 µM [34]?
Its inhibition at 10 µM is 13%.

And the inhibition at 10 µM [35]?
The inhibition at 10 µM was 6%.

What about the inhibition at 10 µM [36] of the same molecule?
The inhibition at 10 µM was 0%.

What about the “%Inhibition by 10 μM SPA70” value [37] of the same molecule?
The value was 26%.

What about the inhibition at 10 µM [38] of the same molecule?
The inhibition at 10 µM was 0%.

And the inhibition at 10 µM [39]?
The inhibition at 10 µM was 0%.

What about the inhibition at 10 µM [40] of the same molecule?
The inhibition at 10 µM was 0%.

And the inhibition at 10 µM [41]?
The inhibition at 10 µM was 40%.
